Reference: patent US5789541A, “Compounds for inhibition of proteolysis” (President and Fellows of Harvard College, priority 1995, dated 1998)
Where two headings read alike, the source gives them in different places. Non-standard residues stand in square brackets, D forms with d. No end group written: not given here. *: point of attachment. Farnesyl = CC(C)=CCC/C(C)=C/CC/C(C)=C/C*

Key:
Type in all cases: biochemical
[1] = tested on: protease of bovine liver microsomal membranes; assay: Substrate kinetics/activity: formation of N-[3H]-AFC from peptide substrates by calf liver microsomal protease; design: key to substrate activity (Table 1, in words): Analogs referred to as inactive did not show detectable activity as substrate when used at concentration of 10mM and prolonged incubation time (16 hours); weakly active: Where marginal activity is noted, detectable activity is observed under prolonged incubation periods, but the activity is <5% that observer, with AFC-V-I-S; settings: for substrate activity (Table 1, in words): 10mM, prolonged incubation time (16 hours); for substrate activity for the protease (in words): calf liver microsomal preparation
Procedure: Briefly, N-[^3 H]-Acetyl-S-farnesyl-L-cys-L-val-L-ile-L-ser or N-[^3 H]acetyl-S-farnesyl-(SEQ ID NO: 1) at a concentration of 10 μM was incubated with bovine liver microsomal membranes (preparation described below). Periodically, 50 μL aliquots were withdrawn from the incubation mixture and the reaction was quenched with 500μL of chloroform/methanol (1:1, v/v). N-[^3 H]-AFC was extracted after thoroughly mixing the mixture for 1 minute and extracting with chloroform. Phase separation was achieved by adding 500μL of 1M citric acid. The chloroform layer was evaporated under nitrogen, resuspended in hexane/isopropanol/TFA (85:15:0.1), and authentic AFC standard was added for detection at 210 nm. The sample was injected on a silica HPLC column (Dynamax 60A, Rainin, Woburn, Mass.) and eluted with the same solvent. Radioactivity was counted with an on-line Berthold (Nashua, N.H.) LB 506-C HPLC radioactivity monitor.
(§1) Measurement of Proteolytic Activity Bovine liver microsomes were prepared according to Walter et al. (Meth. Enzym. 96:84, 1983). Kinetic measurements were performed by incubating 0.2 mg/mL protein with peptide substrates in 200 mM HEPES buffer containing 100 mM NaCl and 5 mM MgCl2 at pH 7.4, all in a final volume of 50 μL. The peptide substrates were added in DMSO to a final concentration of 4% (v/v) at 37°. The enzymatic reaction was quenched at the appropriate time by the addition of 0.5 mL of chloroform/methanol (1/1, v/v). Phase separation was achieved by adding 0.5 mL 1M citric acid. The chloroform layer was separated and evaporated under nitrogen and the residue was dissolved in n-hexane/2-propanol/TFA containing cold AFC. The formation of the product ^3 H-AFC was followed by HPLC analysis at 210 nm according to Perez-Sala et al. (Proc. Nat'l Acad. Sci. USA 88:3043, 1991). The samples were injected onto a normal phase HPLC column (Dynamax 60, Rainin, Woburn, Mass.) connected to a model LB 506-C on-line radioactivity monitor (Berthold, Nashua, N.H.). The column was eluted with n-hexane/2-propanol/TFA [85:15:0.1 (v/v/v)] at 1.5 mL/min.
For these experiments the substrates were dissolved in DMSC and incubated with calf liver microsomal membranes (0.2 mg of protein/mL) (Walter et al., supra) as described above. The amount of radioactive product was determined as described above. The reaction was quenched with 500 μL of CHCl3 /MeOH (1:1, v/v), and the radioactive N-terminal amino acid, i.e. N-[^3 H]AFC, was extracted after thoroughly agitating this mixture. Phase separation was achieved by adding 500 μL of 1M citric acid. After the chloroform layer was evaporated under nitrogen the residue was resuspended in n-hexane/isopropanol/TFA (90:10:0.01) and non-radioactive AFC was added as a standard for UV detection (210 nm). The sample was injected on a normal-phase HPLC column (Dynamax 60A, Rainin), and elution was performed with the same solvent at flow rate l.5 ml/min. Radioactivity was counted with an on-line Berthold (Nashua, NH) LB 506-C HPLC radioactivity monitor. The limit of efficiency of this assay was 3× the background counts/min (~150 cpm), which permits detection of products from substrates whose activities are 0.4% of the Vmax of AFC-Val-Ile-Ser (SEQ ID NO: 1) (1.13 pmol/min/mg). The retention times for AGC, AFC, and AGGC are 7.58, 7.26, and 7.00 min respectively, and for AGC-Val-Ile, AFC-Val-Ile, and AGGC-Val-Ile, they are 5.48, 6.54, and 5.08 min respectively.

[2] = tested on: proteolytic enzymatic activity in dog pancreatic microsomes; assay: Proteolysis of tetrapeptide by dog pancreatic microsomes, extended incubation; settings: extended incubation conditions
Procedure: A similar stereospecific proteolytic enzymatic activity was also found in dog pancreatic microsomes. Under extended incubation conditions, where 54% of the tetrapeptide substrate 1 was cleaved by these microsomes, no proteolysis of D-AFC-val-ile-ser 2 could be detectec, (<1%). […] Synthesis of N-[^3 H]-acetyl-S-all-trans-farnesyl-L-Cys-L-Val-L-Ile-L-Ser or N-[^3 H]acetyl-S-farnesyl-(SEQ ID NO: 1) A solution of N-[^3 H]-acetyl-S-all-trans-farnesyl-L-Cys-L-Val-L-Ile (1.12 μmol, 250 mCi/mmol), L-serine hydrochloride methyl ester (20 mg, 0.13 mmol), and 1-hydroxybenzotriazole hydrate (17.4 mg, 0.13 mmol) in 3 mL of DMF was cooled to 0° C. 1-(3-Dimethylamino)propyl-3-ethyl carbodiimide hydrochloride (17.2 mg, 0.09 mmol) and N-methylmorpholine (14.1 μL, 13 mg, 0.13 mmol) were added at 0° C. The mixture was stirred at 0° C. under argon for 2 hours and at room temperature for 24 hours. Water (20 mL) was added and the mixture was extracted with ethyl acetate (4×20 mL). The combined organic layer was washed with 10% HCl, saturated sodium bicarbonate, and water, dried over anhydrous magnesium sulfate, filtered, and evaporated. The residue was dissolved in 3 mL of acetonitrile and 3 mL of 10% aqueous sodium carbonate was added. The mixture was stirred at room temperature for 24 h. 10% HCl was added to adjust the pH to 2. […] Recovery of radioactivity was 28.2 μCi, 1.13×10^-4 mmol. […]

[3] = tested on: protease of bovine liver microsomal membranes; assay: Inhibition of proteolysis of [3H]-AFC-val-ile-ser by calf liver microsomal protease; settings: 4 μM [3H]-AFC-val-ile-ser substrate; 20 μM of the dipeptide or tripeptide
Procedure: as §1
As expected, the proteolysis of [^3 H]-AFC-val-ile-ser or N-[^3 H]-(SEQ ID NO: 1) was inhibited by the dipeptide substrate (AFC-val) and by the tripeptide substrate (AFC-val-ile). […]

[4] = Table 1, substrate of the protease, calf liver microsomal membranes, average of two determinations ±S.D., same enzyme preparation
[5] = Table 1, substrate of the protease, calf liver microsomal membranes, average of two determinations ±S.D., same enzyme preparation, read-out: KM
[6] = substrate of the protease, liver microsomal membranes, read-out: KM

Row | Compound | substrate activity (Table 1, in words) ([1]; Table 1) | substrate activity for the protease (in words) [1] | also measured
1 | N-[^3 H]-acetyl-S-all-trans-farnesyl-L-Cys-L-Val-D-Ile [AFC-Val-Ile (8)] | inactive | did not have substrate activity | –
2 | N-[^3 H]-acetyl-S-all-trans-farnesyl-L-Cys-L-Val-L-Ile-L-Met (C(Farnesyl)VIM; not fully specified (N-terminus); printed as N-[^3 H]-acetyl-S-all-trans-farnesyl-L-Cys-L-Val-L-Ile-L-Met; also: tritium label on the N-acetyl) [AFC-Val-Ile-Met (9)] | – | good substrate | Vmax [1, 4]: 126.3 pmol/min/mg; Km [1, 5]: 2.96 ± 0.35 µM
3 | N-[^3 H]-Acetyl-S-all-trans-geranylgeranyl-D-cys-L-Val-L-Ile [AGGC-Val-Ile (2) D-L-L] | inactive | no measurable protease activity | –
4 | N-[^3 H]-Acetyl-L-Cys-L-Val-L-Ile [Cys-Val-Ile (4)] | inactive | Neither analog was measurably processed | –
5 | N-[^3 H]-acetyl-S-all-trans-farnesyl-D-Cys-L-Val-L-Ile-L-Ser [D-AFC-val-ile-ser] | – | did not occur | tetrapeptide cleaved [2]: < 1%
6 | N-acetyl-S-all-trans-farnesyl-L-Cys-D-Val-L-Ile [AFC-Val-Ile (7)] | inactive | did not have substrate activity | –
7 | N-acetyl-S-all-trans-farnesyl-D-Cys-D-Val-L-Ile [D-D-L] | – | inactive | –
8 | N-Ac-S-all-trans-farnesyl-D-Cys-L-Val-L-Ile [AFC-Val-Ile (6)] | inactive | – | –
9 | N-[^3 H]-Acetyl-S-thio-t-butyl-L-Cys-L-Val-L-Ile [t-butylthio-Cys-Val-Ile (5)] | inactive | Neither analog was measurably processed | –
10 | CC(=O)N[C@@H](CSC/C=C(\C)CC/C=C(\C)CCC=C(C)C)C(N)=O [AFC amide] | – | not a substrate | –
11 | N-acetyl-S-trans-geranyl-L-Cys-L-Val-L-Ile [AGC-Val-Ile (3)] | – | good substrates | Vmax [1, 4]: 19.35 ± 1.12 pmol/min/mg; Km [1, 5]: 14.6 ± 2.14 µM
12 | N-[^3 H]-Acetyl-S-all-trans-geranylgeranyl-L-Cys-L-Val-L-Ile [AGGC-Val-Ile (2)] | – | good substrates | Vmax [1, 4]: 26.20 ± 0.97 pmol/min/mg; Km [1, 5]: 4.01 ± 0.4 µM; Vmax ([1]; substrate of the protease): 19.35 pmol/min/mg; Km [1, 6]: 14.6 µM
13 | N-acetyl-S-trans-geranyl-D-Cys-L-Val-Ile [AGC-Val-Ile (3) D-L-L] | inactive | no measurable protease activity | –
14 | N-acetyl-S-farnesyl-L-cysteine-L-val-L-ile-L-ser [AFC-val-ile-ser] | – | – | tetrapeptide cleaved [2]: 54%; Vmax ([1]; bovine liver microsomal membranes): 0.236 ± 0.008 nmol/min/mg protein; Km [1, 6]: 4.8 µM
15 | N-[^3 H]-acetyl-S-all-trans-farnesyl-L-Cys-L-Val-L-Ile-D-Met ({(3H)‑acetyl}-C(Farnesyl)VI[dM]) [AFC-Val-Ile-Met (10)] | weakly active (Where marginal activity is noted, detectable activity is observed under prolonged incubation periods, but the activity is <5% that observer, with AFC-V-I-S) | processed to some extent | –
16 | acetyl-S-all-trans-farnesyl-L-Cys-Val-Ile [AFC-Val-Ile (1)] | – | – | diminution in substrate cleavage [3]: approximately 50%; Vmax [1, 4]: 57.7 ± 5 pmol/min/mg; Vmax, previously measured ([1]; former measurement on a different microsome preparation from a different animal): 65.6 pmol/min/mg; Km ([1]; former measurement on a different microsome preparation from a different animal, read-out: KM, previously measured): 12.6 µM; Vmax ([1]; substrate of the protease): 58 ± 4.9 pmol/min/mg; Km [1, 6]: 9.2 ± 0.21 µM
